Data on two compounds can be found in patent US20180098950A1, “INHIBITORS OF ABETA AND SYNUCLEIN AGGREGATION” (The Feinstein Institute For Medical Research, priority 2006, published 2018).

SMILES strings stand for the structures. “And” between values parts separate entries of the source, which are not always exact repeats. Equal values may be shown once. “Also recorded” adds a separate entry of the source. Read-outs that look alike come from different tables or passages of the source.

The target in assay [1] is T1, Aβ42 (Homo sapiens, UniProt P05067).
T1 construct: less abundant 42-amino acid form (Aβ42)
In words: Aβ oligomer ELISA with various concentrations of CNI-1493. The following applies: Aβ42 with increasing concentrations of CNI-1493. The text has this:
Aβ42 was combined with various concentrations of CNI-1493 and Aβ oligomers were quantified by ELISA using Aβ oligomer-specific antibodies.

In assay [2] the test system is APP-expressing TgCRND8 mice. Briefly: Aβ plaque burden by immunohistochemistry and image analysis in TgCRND8 mice. The following applies: 8 mg/kg i.p. twice a week for 8 weeks, vs vehicle. It is filed as in vivo, mouse. How it is done: Animals. All animal procedures were approved by the office of the district president and the institutional animal care and use committee for the University of Munster. We used the TgCRND8 mouse line (courtesy of David Westaway, University of Toronto, Toronto, Ontario, Canada). TgCRND8 mice encode a double mutant form of amyloid precursor protein 695 (KM670/671 NL+V717F) under the control of the PrP gene promoter (Chishti et al., 2001). Thioflavine S-positive Aβ amyloid deposits are present at 3 months, with dense-cored plaques and neuritic pathology evident from 5 months of age.
(§1) Drug treatment of TgCRND8 mice. APP transgenic TgCRND8 mice at 4 months old received twice a week an i.p. injection of 200 μl containing 200 μg CNI-1493 (8 mg/kg) for 8 weeks. There were four animals in each treatment group. Animals were housed singly in individual cages. At the end of the experimental period, animals were killed by decapitation. The brain was dissected and the hemispheres separated along the midline. One hemisphere was fixed in 4% buffered formaldehyde for 24 h followed by dehydration and paraffin embedding. The other hemisphere was immediately snap-frozen in liquid nitrogen and kept at −80° C.
Immunohistochemistry. Three pairs of 2 μm sagittal brain sections of each transgenic animal were stained for Aβ immunoreactivity. The pairs (10 μm distance) were situated 100 μm, 200 μm and 300 μm lateral from the mid-sagittal fissure. All slices were pretreated with formic acid and automatically stained in a TechMate Instrument (Dako Cytomation, Hamburg, Germany) with 6F/3D anti-Aβ monoclonal antibody to residues 8-17 (Dako, 1:100). For further steps, the Dako StreptABC complex-horseradish peroxidase conjugated “Duet” anti mouse/rabbit antibody kit was used and developed with 3, 3′-diaminobenzidine (DAB) as chromogen. Counterstaining was performed with hematoxylin. All slides were stained in two consecutive procedures making sure that brains of both experimental groups were equally distributed in both procedures.
Image analysis. To quantify Aβ plaque burden, cortices and hippocampi of all stained sections were digitalized by a ColorView II, 3, 3 Mega Pixel CCD camera under constant light and filter settings. Color images were converted to greyscale to obtain best contrast between positive immunoreactivity and background. A constant threshold was chosen for all images to detect immunoreactive staining.
Morphometric measurements were performed by image analysis software “SIS analysis Auto Software 3.2” (Soft Imaging System GmbH, http://www.soft-imaging.org/). Total number and surface of plaques was related to the total area analyzed.

Assay [3] concerns the target T1, Aβ42. Briefly: Electron microscopy of Aβ42 oligomer fibrilization. As to conditions: Aβ42 oligomers with vs without CNI-1493.
The next assay relates to F4/80 antigen. In words: Western blot of F4/80 (microglial activation) in brain of treated TgCRND8 mice. Format: in vivo, mouse. As to conditions: 8 mg/kg i.p. twice a week for 8 weeks, vs control. As for the experimental part: as §1
Biochemical analysis. Half of the brain was weighed and homogenized in an appropriate volume of T-PER (Perbio, Bonn, Germany) in accordance to the guidelines of the manufacturer. Lysate protein concentration was measured by BCA kit (Perbio). 15-60 μg protein per sample was loaded onto a pre-cast NuPAGE Novex 4-12% Bis-Tris gel and separated using the Novex electrophoresis system (Invitrogen, Karsruhe, Germany). Subsequently, the proteins were transferred onto nitrocellulose membranes (Invitrogen) using the XCell II™ blot (Invitrogen). The immobilized proteins were visualized using MemCode reversible protein staining kit (Perbio). […] Equal protein loading of all membranes was assessed by reprobing with monoclonal antibodies against GAPDH (Acris, Hiddenhausen, Germany).

Another assay relates to primary neurons. Briefly: Aβ toxicity in primary neurons. Format: cell-based. The text has this: To determine whether the CNI-1493-treated form of Aβ is toxic, Aβ that had been pretreated with, or without, CNI-1493 was combined with SY5Y neuroblastoma cells. Toxicity was monitored using MTT (thiazolyl blue) reduction (mitochondrial succinate dehydrogenase activity) and lactate dehydrogenase activity (LDH). The MTT and LDH assays correlated with each other. […] Additionally, the protective effect of CNI-1493 was examined in similar assays using primary neurons.

The target of assay [4] is T1, Aβ42. In words: Anti-oligomer antibody ELISA, Aβ42.
The subject of assay [5] is N2a cells expressing wild type APP695. In words: APP processing analysis in N2a cells. Format: cell-based. The following applies: 24 h treatment. As for the experimental part:
APP processing analysis in N2a cells. APP695-transfected N2a cells (Marambaud et al., 2005) were grown in 1:1 DMEM/Opti-MEM supplemented with 5% FBS, penicillin and streptomycin, and 0.2 mg/ml G418. Cells were treated at confluency for 24 h with the indicated concentrations of CNI-1493. Medium was then changed and treatments were continued for another 2 h to allow Aβ secretion. Twenty microliters of conditioned medium were electrophoresed on 16.5% Tris-Tricine gels and transferred onto […] nitrocellulose membranes. Membranes were then microwaved for 5 min in PBS, blocked in 5% fat-free milk in TBS, and incubated with 6E10 (Signet, 1:1000 in Pierce SuperBlock) overnight at 4° C. Cells were washed with PBS and solubilized in ice-cold HEPES buffer (25 mM HEPES, pH 7.4, 150 mM NaCl, 1× Complete protease inhibitor cocktail, Roche) containing 1% SDS. Ten micrograms of extracts were analyzed by western blot with 6E10, R1 (anti-APP C-terminal domain, reference 21), and LN27 (anti-APP1-200, Zymed).

Another assay addresses synuclein (Homo sapiens, UniProt P37840). Briefly: Anti-oligomer antibody ELISA, synuclein. As for the experimental part: The ability of CNI-1493 to prevent aggregation of synuclein was tested by determining the recognition of synuclein by an anti-oligomer antibody (gift of Dr. C. Glabe, University of California at Irvine) in an ELISA assay.
The target in another assay is T2, Aβ40 (Homo sapiens, UniProt P05067).
T2 construct: The 40-amino acid form (Aβ340) is the most abundantly produced Aβ peptide
Briefly: Anti-oligomer antibody ELISA, Aβ40.

T1 sequence (P05067 672-713 limits assumed): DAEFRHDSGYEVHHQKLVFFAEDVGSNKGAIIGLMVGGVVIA
T2 sequence (P05067 672-711 limits assumed): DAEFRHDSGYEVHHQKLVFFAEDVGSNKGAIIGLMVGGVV

Turning to `CC(=NNC(=N)N)c1cc(NC(=O)CCCCCCCCC(=O)Nc2cc(C(C)=NNC(=N)N)cc(C(C)=NNC(=N)N)c2)cc(C(C)=NNC(=N)N)c1.Cl.Cl.Cl.Cl` [CNI-1493, N,N′-bis(3,5-diacetylphenyl)decanediamide tetrakis(amidinohydrazone) tetrahydrochloride], the “Aβ oligomers by ELISA (final OD)” value at Aβ42 [1] is “reduced the final OD in the ELISA; also recorded: reduction in recognition of Aβ oligomers”. In addition, the “reduction of plaque area (square micrometers per area of interest in square mm)” value in assay [2] (cortex) was 70%; in assay [2] (hippocampus, 8 mg/kg), 87% and 86%. Also, the “reduction of plaque number (plaques per area of interest in square mm)” value in [2] (cortex) came to 57%; in [2] (hippocampus), 60%. At Aβ42 [3], the “formation of fibrillar aggregates (electron microscopy)” value is reported as “do not form the fibrillar aggregates; also recorded: inhibited Aβ42 oligomer fibrilization”. Besides, the “microglial activation, F4/80 expression in brain (western blot)” value in the assay with F4/80 antigen was “significant reduction in microglial activation; also recorded: decrease of F4/80 signal; also recorded: decline of F4/80 in all CNI-1493 animals”. Moreover, the “protection from Aβ toxicity” value with primary neurons was “protected the neurons from Aβ toxicity”. The “recognition by anti-oligomer antibody (aggregation)” value is reported as “prevents aggregation” on Aβ42 [4]; “reduced recognition by the antibody” on Aβ42 [4] (listed as CNI-1492); “prevents aggregation” at synuclein; “reduced recognition by the antibody” on synuclein (listed as CNI-1492); “prevents aggregation” on Aβ40; “reduced recognition by the antibody” at Aβ40 (listed as CNI-1492). Besides, in [5], the “full length APP production (LN27)” value is reported as “not accompanied by reduced levels of APP production”. Also, the “β- or γ-secretase cleavage of APP (C99, C83 fragments)” value in assay [5] was “no effect”. In assay [5] (then medium change and continued treatment), the “total Aβ secreted into the medium (western blot, 6E10)” value is listed as “profound dose-dependent decrease of total Aβ accumulation; also recorded: dose-dependent, dramatic reduction; also recorded: profound dose-dependent decrease of total Aβ secretion”.
As for `N=C(N)c1ccc(OCCCCCOc2ccc(C(=N)N)cc2)cc1` [pentamidine, reference compound], the “recognition by anti-oligomer antibody (aggregation)” value at Aβ42 [4], on synuclein and on Aβ40 was “reduced recognition by the antibody” throughout.
